Experimental data taken from article PMC8312610, “F4, a collagen XIX-derived peptide, inhibits tumor angiogenesis through αvβ3 and α5β1 integrin interaction” (Cell Adhesion & Migration, 2021).
Entries after “also recorded” stand apart in the source; their conditions may differ. Positions of bridges follow the written chain, without caps; N, C: chain ends. No end group written: not given here.

Columns and labels:
[1] = system: HUVEC (Human Umbilical Vein Endothelial Cells); test: HUVEC proliferation (crystal violet); format: cell-based; conditions: 40 μM, 48 h, 5,000 HUVEC per well in ECGM, 560 nm, means ± SD (n = 16), N = 3
Procedure: Figure 1. […] 5,000 HUVEC were seeded in a 96 well plate and incubated with or without 40 μM NC1(XIX) or F4 for 48 hours. After washing, cells were fixed with glutaraldehyde and stained with crystal violet. Dye was eluted with 10% acetic acid and absorbance was read at 560 nm. The values are the means ± SD (n = 16). The experiment was repeated three times (N = 3) and the results presented in the figure correspond to the more representative one
(§1) Human Umbilical Vein Endothelial Cells (HUVEC) (Ref C-12253) were purchased from Promocell. They were grown in Endothelial Cell Growth Medium (ECGM) (Promocell, Ref C-22110: Basal medium supplemented with 0.02 mL/mL Fetal Calf Serum, 0.004 mL/mL Endothelial Cell Growth Supplement, 0.1 ng/mL Epidermal Growth Factor (recombinant human), 1 ng/mL Basic Fibroblast Growth Factor (recombinant human), 90 μg/mL Heparin, 1 μg/mL Hydrocortisone) at +37°C in a humid atmosphere containing 5% CO2. PromoCell Detach Kit was used for the detachment of HUVEC according to the manufacturer’s protocols (Promocell, ref C-41200).
For cell proliferation measurement, 5,000 HUVEC were seeded in 96-well plates and cultivated in ECGM with or without 40 μM NC1(XIX) or F4 at +37°C in a humid atmosphere containing 5% CO2. […] Dye was eluted with 10% (v/v) acetic acid and absorbance was read at 560 nm.

[2] = system: HUVEC; test: Capillary (pseudo-)tube formation on Matrigel; format: cell-based, human; conditions: 40 µM
Procedure: Figure 2. NC1(XIX) and F4 inhibit endothelial cell in vitro pseudotube formation. 50,000 HUVEC were seeded in Matrigel coated well of a 48 well-plate and incubated with or without 40 μM NC1(XIX) or F4. Pseudotube formation was observed and photographed under an inverted microscope after 8 hours (a). The number of segments, of nodes and the total length of pseudotubes were quantified by the ImageJ software, using the Angiogenesis Analyzer tool (b). The values are the means ± SD (n = 8 replicates). *** p < 0.001). The experiment was repeated three times (N = 3)
as §1
The ability of HUVEC to form pseudo-tubes was investigated on Matrigel (Corning, ref 356237). Matrigel was loaded into 48-well plate and allowed to polymerize at +37°C for 2 h. 50,000 HUVEC suspended in Basal media supplemented with 0.004 mL/mL Endothelial Cell Growth Supplement, 90 μg/mL Heparin, 1 μg/mL Hydrocortisone with or without 40 μM NC1(XIX) or F4 were seeded into each well. Plates were incubated at +37°C in a humid atmosphere containing 5% CO2, 95% for 8 h. The formation of the capillary network was then imaged under an inverted light microscope. Quantitative evaluation of the capillary network was performed using the angiogenesis analyzer tool of ImageJ analysis software. The number of nodes, of segments and the total length of the capillary network were determined.

[3] = system: Sprague Dawley rat aortic rings; test: Ex vivo rat aortic ring assay (endothelial cell outgrowth); format: cell-based; conditions: 40 μM, 14 days, Opti-MEM with 30 ng/mL VEGF, Matrigel, mean ± SD (n = 5), N = 2; p < 0.01 NC1(XIX), p < 0.001 F4
Procedure: Figure 3. NC1(XIX) and F4 inhibit endothelial cell ex vivo migration. Rat aortic rings were embedded in Matrigel in 24 well-plate and then incubated with or without 40 μM NC1(XIX) or F4 for 14 days. Micro-vessel outgrowth was observed under an inverted microscope after 14 days and photographed (a). Cell outgrowth from the tissue explant was measured using a home-made macro based on ImageJ analysis software. The results are presented as mean ± SD (n = 5 replicates) (b). The experiment was repeated twice (N = 2)
The ex vivo rat aortic ring assay was adapted from Baker et al.. Thoracic aorta was dissected from Sprague Dawley rat and stored in Opti-MEM (ThermoFisher, ref 31985062) supplemented with 1% penicillin/streptomycin in a Petri dish. Aorta was then cut into 0.5 mm rings that were incubated in Opti-MEM overnight at +37°C in a Petri dish. Matrigel (7 mg/mL) was loaded in 24-well plate and allowed to polymerize at +37°C for 30 min. The rings were carefully transferred from the Petri dish onto the Matrigel coated wells and were completely embedded by addition of Matrigel. The plate was incubated at +37°C for 30 min. Opti-MEM supplemented with 30 ng/mL VEGF with or without 40 μM NC1(XIX) or F4 was added. Plate was incubated at +37°C in a humid atmosphere containing 5% CO2 for 14 days. The supplemented culture medium was changed every 3 days. Rings were imaged under an inverted light microscope at 14 days. Quantitative evaluation of the angiogenic sprouting was determined by measuring the number of endothelial cell outgrowth from the primary tissue explant using a homemade macro based on ImageJ analysis software. The first step consisted in the semi-automatic selection of aortic ring shape at day 0 by manual threshold allowing the design of a top hat filter to obtain a relevant mask of this structure. The mask was then substracted from day 14 image to keep only outgrowing cells. The second step consisted in a manual threshold and the use of ‘Analyze Particules’ tool involving size criteria. The total cell number of cell outgrowing from the ring was determined.

[4] = system: melanoma cell; conditions: earlier work of the authors; ref [22],[23]; cited from earlier work
Excerpt: (§2) The aim of the present work was to study the anti-angiogenic properties of F4 peptide. […] By affinity chromatography, we identified αvβ3 and α5β1 integrins as potential receptors for F4 peptide on endothelial cell surface. Using solid phase assays, ... || Type XIX collagen, that belongs to the FACIT family (Fibril-Associated Collagens with Interrupted Triple helices), is a minor collagen associated to the basement membrane zone.

[5] = system: mouse melanoma model; conditions: mouse melanoma model; ref [22],[23]; cited from earlier work
Excerpt: as §2

[6] = system: α5β1 integrin; design: method as in PMID 26975851; conditions: NC1(XIX) covalently coupled to agarose beads, cortical protein extract; ref [27]; cited from earlier work
[7] = system: inhibitory nerve terminal assembly; design: method as in PMID 26975851; conditions: in vitro; ref [27]; cited from earlier work
[8] = system: αvβ3 integrin; test: Solid phase assay, direct binding to αvβ3; design: species or system human; conditions: coated integrin 26 × 10^−7 to 0.1 × 10^−7 mol/L; biotinylated-F4 26 × 10^−5 mol/L, or 20.8 × 10^−4 to 0.16 × 10^−4 mol/L; 90 min, room temperature, streptavidin-peroxidase/TMB, 450 nm; N = 2
Excerpt: (§3) Figure 5. F4 directly binds to αvβ3 and α5β1 integrins. Direct interaction between αvβ3 or α5β1 integrin and F4 was studied using solid phase assays as described in the material and method section. The F4 peptide was biotinylated to allow its detection using the streptavidin-peroxidase complex. Different conditions were used. (a-b) The amounts of coated αvβ3 (a) or α5β1 integrin (b) were increased while biotinylated F4 peptide was kept constant. (c-d) The concentration of biotinylated F4 peptide was increased while coated amounts of αvβ3 (c) or α5β1 (d) integrins were kept constant. (e-f) Competitive assays were performed using increasing concentrations of F4 peptide while biotinylated-F4 peptide and αvβ3 (e) or α5β1 (f) integrins were kept constant. […]
(§4) Wells of a 96-well plate were coated with α5β1 (ref. 3230-A5-050, R&D systems) and/or αvβ3 integrin (ref. 3050-AV-050, R&D systems) at different concentrations ranging from 26 × 10^−7 mol/L to 0.1 × 10^−7 mol/L (100 μL per well in PBS). […] The intensity of the yellow coloration was measured at 450 nm with an LB940 spectrophotometer (Berthold Technologies).
(§5) The optimum integrin amount for the coating was determined using the above protocol and the optimum ligand concentration was sought using different dilutions of the biotinylated-F4 peptide ranging from 20.8 × 10^−4 to 0.16 × 10^−4 mol/L.

[9] = system: α5β1 integrin; test: Solid phase assay, direct binding to α5β1; design: species or system human; conditions: coated integrin 26 × 10^−7 to 0.1 × 10^−7 mol/L; biotinylated-F4 26 × 10^−5 mol/L, or 20.8 × 10^−4 to 0.16 × 10^−4 mol/L; 90 min, room temperature, streptavidin-peroxidase/TMB, 450 nm; N = 2
Excerpt: as §3, §4, §5

[10] = 8 h, 50,000 HUVEC on Matrigel, ImageJ Angiogenesis Analyzer, p < 0.001 for NC1(XIX) and F4, n = 8, N = 3

| Substance | effect on HUVEC proliferation [1] | decrease of the number of nodes vs control [2, 10] [%] | decrease of the number of segments vs control [2, 10] [%] | decrease of the total length of capillary tubes vs control [2, 10] [%] | inhibition of pseudo-tube formation ([2]; 8 h, HUVEC on Matrigel, compared to control) | change of cell outgrowth from aortic ring vs control [3] [%] | melanoma cell migration and invasion [4] | in vivo tumor growth and angiogenesis [5] | purification of α5β1 integrin on immobilised peptide [6] | inhibitory nerve terminal assembly [7] | binding to αvβ3, concentration dependence [8] | binding to α5β1, concentration dependence [9] |
| --- | --- | --- | --- | --- | --- | --- | --- | --- | --- | --- | --- | --- |
| NPEDCLYPVSHAHQRTGGN [NC1(XIX), NC1(XIX) domain at the C-terminus of the α1(XIX) collagen chain] | not significantly modified; also recorded: does not affect endothelial cell proliferation | 57 | 33 | 31 | strongly inhibited pseudo-tube formation | −57 | inhibits melanoma cell migration and invasion | strongly inhibits in vivo tumor growth as well as angiogenesis | able to purify α5β1 integrin from cortical protein extract | involved in triggering inhibitory nerve terminal assembly in vitro |  |  |
| biotinylated-F4: The F4 peptide was biotinylated to allow its detection using the streptavidin-peroxidase complex (CNPEDCLYPVSHAHQR; disulfide 1-6 (inferred); also: biotinylated (position not given here)) |  |  |  |  |  |  |  |  |  |  | dependent both on the receptor (Figure 5(a,b)) and on ligand (Figure 5(c,d)) concentrations | dependent both on the receptor (Figure 5(a,b)) and on ligand (Figure 5(c,d)) concentrations |
